Test results published in patent US9963461B2, “Phillygenin ibuprofen ester, preparation method therefor, and application thereof” (priority 2014, dated 2018).
Marks after values point to notes of the source that are not given here.

Columns and labels:
[1] = system: beer yeast induced rat fever; test: Beer yeast induced rat fever; format: in vivo, Wistar rats; conditions: 300 mg/kg
Procedure: Male Wistar rats were selected, weighing 180-200 g. Before the test, WSC-411P portable digital thermometer was used to measure the normal rectal temperature twice (with certain interval for each time), and the average value of the two measurements was taken as the normal body temperature of the rat. Then 70 rats with the body temperature between 36.5° C. and 38° C. were chosen to be randomly divided into 7 groups by weight: the model (0.5% carboxymethylcellulose) group, the 2.5, 5, and 10 mg/kg phillygenin ibuprofen ester groups, the positive drug paracetamol (100 mg/kg) group, the ibuprofen group (i.e. prodrug control group, 300 mg/kg), the phillygenin group (100 mg/kg), with 10 rats for each group. Each group of rats were subjected to back subcutaneous injection with 10% fresh beer yeast suspension of 10 ml/kg to induce heat. After administration of 10% fresh beer yeast suspension for 6.0 h, phillygenin ibuprofen ester and paracetamol were both subjected to intragastric administration, and the model group was intragastrically administrated with equal volume of 0.5% carboxymethylcellulose. Rectal temperature was measured after 1 h, 2 h, 3 h and 4 h of the administration respectively. Changes in the body temperature were observed and difference between the groups was compared by inter-group t test processing through antipyretic percentage.

[2] = system: rabbit fever induced by typhoid and paratyphoid vaccine; test: Rabbit fever induced by typhoid and paratyphoid vaccine; format: in vivo, Japanese white rabbits; conditions: 300 mg/kg
Procedure: Japanese male big-ear white rabbits, weighing 1.5-2.0 kg. Before the test, WSC-411P portable digital thermometer was used to measure the normal rectal temperature twice (with certain interval for each time), and the average value was taken as the normal body temperature. Then 48 Japanese big-ear white rabbits with body temperature of 38-39.6° C. were selected and randomly divided into 8 groups by weight, namely: the blank control (normal saline) group, the model control (0.5% carboxymethylcellulose) group, the ibuprofen group (300 mg/kg), the phillygenin group (10 mg/kg), the 1.25, 2.5, and 5 mg/kg phillygenin ibuprofen ester groups and the positive drug paracetamol (50 mg/kg) group. The rabbits were fixed in a fixator. The blank control group was intravenously injected with normal saline of 1 ml/kg via the ear margin; The model control group and the drug groups were intravenously injected with typhoid and paratyphoid vaccines of 0.8 ml/kg via the ear margin. When the body temperature rise of the rabbits was greater than 1° C. (requiring about 1-1.5 h, which was restricted to 1 h in this test), the blank control group and the model group were administered intragastrically with 0.5% carboxymethycellulose of 1 ml/kg, and the drug groups were administered intragastrically with phillygenin ibuprofen ester and paracetamol. […]

[3] = system: respiratory syncytial virus (RSV); test: Impact of the drugs on the virus-induced cytopathy (MTT); format: cell-based; conditions: RSV 100 TCID50, Vero cells, about the maximal non-cytotoxic concentration, 72 hours
[4] = system: mice pain induced by acetic acid; test: Analgesic test, mice writhing induced by acetic acid; format: in vivo, Kunming mice; conditions: 300 mg/kg intragastric; within 15 min after 0.7% acetic acid
Procedure: 72 Kunming mice were randomly divided into 6 groups, with 12 mice for each group. (1) the blank normal control group (i.e. saline group, […]); (2) positive drug aspirin group (200 mg/kg); (3) ibuprofen group (300 mg/kg); (4) high dose group of phillygenin ibuprofen ester (300 mg/kg); (5) medium dose group of phillygenin ibuprofen ester (150 mg/kg); (6) low dose group of phillygenin ibuprofen ester (75 mg/kg). […] The number of mice writhings within 15 min after administration was recorded. The number of writhings was taken as the evaluation index to evaluate the analgesic effect.

influenza virus = test: Impact of the drugs on the virus-induced cytopathy (MTT); format: cell-based; conditions: influenza virus 100 TCID50, Vero cells, about the maximal non-cytotoxic concentration, 72 hours
Enterovirus EV71 = test: as above; format: cell-based; conditions: EV71 100 TCID50, Vero cells, about the maximal non-cytotoxic concentration, 72 hours
[5] = system: coxsackie virus B3 (CVB3); test: as above; format: cell-based; conditions: CVB3 100 TCID50, Vero cells, about the maximal non-cytotoxic concentration, 72 hours
[6] = time after administration (min) 30
[7] = time after administration (min) 60
[8] = time after administration (min) 90
[9] = time after administration (min) 120
[10] = time after administration (min) 180

CC(C)Cc1ccc(C(C)C(=O)O)cc1 (centres unmarked) [Ibuprofen]
Body temperature (° C.) ([1]; 1 h after administration): 39.21 ± 0.11 °C | antipyretic percentage (%) ([1]; 1 h after administration): −1.05 ± 0.54 % | Body temperature (° C.) ([1]; 2 h after administration): 38.92 ± 0.35 °C | antipyretic percentage (%) ([1]; 2 h after administration): −1.7 ± 0.77 % | Body temperature (° C.) ([1]; 3 h after administration): 38.71 ± 0.20 °C | antipyretic percentage (%) ([1]; 3 h after administration): −2.32 ± 1.41 % | Body temperature (° C.) ([1]; 4 h after administration): 38.49 ± 0.51 °C | antipyretic percentage (%) ([1]; 4 h after administration): −2.88 ± 1.50 % | Body temperature (° C.) [2, 6]: 40.74 ± 0.52 °C | antipyretic percentage (%) [2, 6]: −0.90 ± 0.41 % | Body temperature (° C.) [2, 7]: 40.56 ± 0.40 °C | antipyretic percentage (%) [2, 7]: −1.35 ± 0.11 % | Body temperature (° C.) [2, 8]: 40.07 ± 0.44 °C | antipyretic percentage (%) [2, 8]: −2.52 ± 0.13 % | Body temperature (° C.) [2, 9]: 39.88 ± 0.55 °C | antipyretic percentage (%) [2, 9]: −3.00 ± 0.23 % | Body temperature (° C.) [2, 10]: 39.77 ± 0.53 °C | antipyretic percentage (%) [2, 10]: −3.25 ± 0.29 % | antiviral effective rate (ER %) [3]: 80.88** % | Writhing times [4]: 9.7* | antiviral effective rate (ER %) (influenza virus): 75.35** % | antiviral effective rate (ER %) (Enterovirus EV71): 75.86** % | antiviral effective rate (ER %) [5]: 50.89%
